Results taken from ChEMBL document CHEMBL2034905, “Synthesis of benzimidazolyl-1,3,4-oxadiazol-2ylthio-N-phenyl (benzothiazolyl) acetamides as antibacterial, antifungal and antituberculosis agents” (Eur J Med Chem, 2012).
In brackets after ≈: the same amount, converted by molar mass.

How the values were obtained:
Salmonella typhi [1] = test: Antibacterial activity against Salmonella typhi MTCC 733 at 100 ug/disc by paper disc diffusion technique; type: functional, Salmonella enterica subsp. enterica serovar Typhi; conditions: Salmonella enterica, read-out: IZ
[2] = Lipophilicity, log P of the compound; type: physicochemical; conditions: octanol/water
Escherichia coli [3] = test: Antibacterial activity against Escherichia coli MTCC 739 by agar streak dilution method; type: functional
Pseudomonas aeruginosa [4] = test: Antibacterial activity against Pseudomonas aeruginosa MTCC 741 at 100 ug/disc by paper disc diffusion technique; type: functional; conditions: read-out: IZ
Staphylococcus aureus [5] = test: Antibacterial activity against Staphylococcus aureus MTCC 96 by agar streak dilution method; type: functional
Proteus vulgaris [6] = test: Antibacterial activity against Proteus vulgaris MTCC 1771 at 100 ug/disc by paper disc diffusion technique; type: functional; conditions: read-out: IZ
Aspergillus clavatus [7] = test: Antifungal activity against Aspergillus clavatus MTCC 1323 by agar streak dilution method; type: functional
Escherichia coli [8] = test: Antibacterial activity against Escherichia coli MTCC 739 at 100 ug/disc by paper disc diffusion technique; type: functional; conditions: read-out: IZ
Staphylococcus aureus [9] = test: Antibacterial activity against Staphylococcus aureus MTCC 96 at 100 ug/disc by paper disc diffusion technique; type: functional; conditions: read-out: IZ
[10] = tested on: Mycobacterium tuberculosis; test: Antituberculosis activity against Mycobacterium tuberculosis H37Rv by Lowenstein-Jensen method; type: functional
Salmonella typhi [11] = test: Antibacterial activity against Salmonella typhi MTCC 733 by agar streak dilution method; type: functional, Salmonella enterica subsp. enterica serovar Typhi; conditions: Salmonella enterica
Candida albicans [12] = test: Antifungal activity against Candida albicans MTCC 183 by agar streak dilution method; type: functional
Aspergillus clavatus [13] = test: Antifungal activity against Aspergillus clavatus MTCC 1323 at 100 ug/disc by paper disc diffusion technique; type: functional; conditions: read-out: IZ
Aspergillus fumigatus [14] = test: Antifungal activity against Aspergillus fumigatus MTCC 343 by agar streak dilution method; type: functional
Shigella flexneri [15] = test: Antibacterial activity against Shigella flexneri MTCC 1457 at 100 ug/disc by paper disc diffusion technique; type: functional; conditions: read-out: IZ
Klebsiella pneumoniae [16] = test: Antibacterial activity against Klebsiella pneumoniae MTCC 109 by agar streak dilution method; type: functional
Aspergillus niger [17] = test: Antifungal activity against Aspergillus niger MTCC 282 by agar streak dilution method; type: functional
[18] = tested on: Mycobacterium tuberculosis; test: Antituberculosis activity against Mycobacterium tuberculosis H37Rv at 6.25 ug/ml by Lowenstein-Jensen method; type: functional
Bacillus cereus [19] = test: Antibacterial activity against Bacillus cereus MTCC 430 at 100 ug/disc by paper disc diffusion technique; type: functional; conditions: read-out: IZ
Pseudomonas aeruginosa [20] = test: Antibacterial activity against Pseudomonas aeruginosa MTCC 741 by agar streak dilution method; type: functional
Bacillus cereus [21] = test: Antibacterial activity against Bacillus cereus MTCC 430 by agar streak dilution method; type: functional
Shigella flexneri [22] = test: Antibacterial activity against Shigella flexneri MTCC 1457 by agar streak dilution method; type: functional
Klebsiella pneumoniae [23] = test: Antibacterial activity against Klebsiella pneumoniae MTCC 109 at 100 ug/disc by paper disc diffusion technique; type: functional; conditions: read-out: IZ
Aspergillus niger [24] = test: Antifungal activity against Aspergillus niger MTCC 282 at 100 ug/disc by paper disc diffusion technique; type: functional; conditions: read-out: IZ
Aspergillus fumigatus [25] = test: Antifungal activity against Aspergillus fumigatus MTCC 343 at 100 ug/disc by paper disc diffusion technique; type: functional; conditions: read-out: IZ
Candida albicans [26] = test: Antifungal activity against Candida albicans MTCC 183 at 100 ug/disc by paper disc diffusion technique; type: functional; conditions: read-out: IZ
Proteus vulgaris [27] = test: Antibacterial activity against Proteus vulgaris MTCC 1771 by agar streak dilution method; type: functional
[28] = tested on: Mycobacterium tuberculosis; test: Antituberculosis activity against Mycobacterium tuberculosis H37Rv by BACTEC MGIT method; type: functional

SMILES	zone of inhibition at 100 µg/disc (Salmonella typhi [1]) [mm]	MIC (Escherichia coli [3]) [µg/mL]	zone of inhibition at 100 µg/disc (Pseudomonas aeruginosa [4]) [mm]	MIC (Staphylococcus aureus [5]) [µg/mL]	zone of inhibition at 100 µg/disc (Proteus vulgaris [6]) [mm]	MIC (Aspergillus clavatus [7]) [µg/mL]	zone of inhibition at 100 µg/disc (Escherichia coli [8]) [mm]	zone of inhibition at 100 µg/disc (Staphylococcus aureus [9]) [mm]	MIC [10] [µg/mL]	MIC (Salmonella typhi [11]) [µg/mL]	MIC (Candida albicans [12]) [µg/mL]	zone of inhibition at 100 µg/disc (Aspergillus clavatus [13]) [mm]	MIC (Aspergillus fumigatus [14]) [µg/mL]	zone of inhibition at 100 µg/disc (Shigella flexneri [15]) [mm]	MIC (Klebsiella pneumoniae [16]) [µg/mL]	MIC (Aspergillus niger [17]) [µg/mL]	inhibition at 6.25 µg/mL [18] [%]	zone of inhibition at 100 µg/disc (Bacillus cereus [19]) [mm]	MIC (Pseudomonas aeruginosa [20]) [µg/mL]	MIC (Bacillus cereus [21]) [µg/mL]	also measured
O=C(CSc1nnc(Cn2cnc3ccccc32)o1)Nc1nc2ccc(Br)cc2s1	24	50 (≈ 99.7 µM)	23	3.12 (≈ 6.22 µM)	20	50 (≈ 99.7 µM)	19	26	25 (≈ 49.9 µM)	25 (≈ 49.9 µM)	100 (≈ 199 µM)	20	50 (≈ 99.7 µM)	23	100 (≈ 199 µM)	50 (≈ 99.7 µM)	99	24	25 (≈ 49.9 µM)	25 (≈ 49.9 µM)	logP [2]: 4.52; MIC (Shigella flexneri [22]): 12.5 µg/mL (≈ 24.9 µM); zone of inhibition at 100 µg/disc (Klebsiella pneumoniae [23]): 14 mm; zone of inhibition at 100 µg/disc (Aspergillus niger [24]): 19 mm; zone of inhibition at 100 µg/disc (Aspergillus fumigatus [25]): 21 mm; zone of inhibition at 100 µg/disc (Candida albicans [26]): 17 mm; MIC (Proteus vulgaris [27]): 50 µg/mL (≈ 99.7 µM); MIC [28]: > 6.25 µg/mL
O=C(CSc1nnc(Cn2cnc3ccccc32)o1)Nc1nc2ccc(F)cc2s1	24	50 (≈ 114 µM)	20	3.12 (≈ 7.08 µM)	22	50 (≈ 114 µM)	17	25	12.5 (≈ 28.4 µM)	25 (≈ 56.8 µM)	50 (≈ 114 µM)	21	25 (≈ 56.8 µM)	24	50 (≈ 114 µM)	25 (≈ 56.8 µM)	99	29	50 (≈ 114 µM)	6.25 (≈ 14.2 µM)	logP [2]: 3.85; MIC (Shigella flexneri [22]): 6.25 µg/mL (≈ 14.2 µM); zone of inhibition at 100 µg/disc (Klebsiella pneumoniae [23]): 19 mm; zone of inhibition at 100 µg/disc (Aspergillus niger [24]): 21 mm; zone of inhibition at 100 µg/disc (Aspergillus fumigatus [25]): 23 mm; zone of inhibition at 100 µg/disc (Candida albicans [26]): 23 mm; MIC (Proteus vulgaris [27]): 25 µg/mL (≈ 56.8 µM); MIC [28]: > 6.25 µg/mL
O=C(CSc1nnc(Cn2cnc3ccccc32)o1)Nc1nc2ccc(I)cc2s1	16	50 (≈ 91.2 µM)	14	12.5 (≈ 22.8 µM)	26	100 (≈ 182 µM)	15	22	200 (≈ 365 µM)	100 (≈ 182 µM)	100 (≈ 182 µM)	14	100 (≈ 182 µM)	22	100 (≈ 182 µM)	100 (≈ 182 µM)	96	23	100 (≈ 182 µM)	25 (≈ 45.6 µM)	logP [2]: 5.05; MIC (Shigella flexneri [22]): 25 µg/mL (≈ 45.6 µM); zone of inhibition at 100 µg/disc (Klebsiella pneumoniae [23]): 14 mm; zone of inhibition at 100 µg/disc (Aspergillus niger [24]): 14 mm; zone of inhibition at 100 µg/disc (Aspergillus fumigatus [25]): < 10 mm; zone of inhibition at 100 µg/disc (Candida albicans [26]): 19 mm; MIC (Proteus vulgaris [27]): 12.5 µg/mL (≈ 22.8 µM); MIC [28]: > 6.25 µg/mL
O=C(CSc1nnc(Cn2cnc3ccccc32)o1)Nc1nc2ccc([N+](=O)[O-])cc2s1	19	50 (≈ 107 µM)	16	12.5 (≈ 26.7 µM)	15	25 (≈ 53.5 µM)	18	21	50 (≈ 107 µM)	50 (≈ 107 µM)	100 (≈ 214 µM)	27	50 (≈ 107 µM)	20	100 (≈ 214 µM)	12.5 (≈ 26.7 µM)	98	25	100 (≈ 214 µM)	12.5 (≈ 26.7 µM)	MIC (Shigella flexneri [22]): 50 µg/mL (≈ 107 µM); zone of inhibition at 100 µg/disc (Klebsiella pneumoniae [23]): 16 mm; zone of inhibition at 100 µg/disc (Aspergillus niger [24]): 23 mm; zone of inhibition at 100 µg/disc (Aspergillus fumigatus [25]): 22 mm; zone of inhibition at 100 µg/disc (Candida albicans [26]): 15 mm; MIC (Proteus vulgaris [27]): 100 µg/mL (≈ 214 µM); MIC [28]: > 6.25 µg/mL
N#Cc1ccc2nc(NC(=O)CSc3nnc(Cn4cnc5ccccc54)o3)sc2c1	17	25 (≈ 55.9 µM)	15	6.25 (≈ 14 µM)	19	100 (≈ 223 µM)	24	24	100 (≈ 223 µM)	100 (≈ 223 µM)	100 (≈ 223 µM)	18	50 (≈ 112 µM)	21	25 (≈ 55.9 µM)	50 (≈ 112 µM)	95	22	50 (≈ 112 µM)	50 (≈ 112 µM)	logP [2]: 3.72; MIC (Shigella flexneri [22]): 50 µg/mL (≈ 112 µM); zone of inhibition at 100 µg/disc (Klebsiella pneumoniae [23]): 25 mm; zone of inhibition at 100 µg/disc (Aspergillus niger [24]): 18 mm; zone of inhibition at 100 µg/disc (Aspergillus fumigatus [25]): 22 mm; zone of inhibition at 100 µg/disc (Candida albicans [26]): 13 mm; MIC (Proteus vulgaris [27]): 50 µg/mL (≈ 112 µM); MIC [28]: > 6.25 µg/mL
